Earlier results on two compounds are cited in patent US4764376A, “Method of inhibiting aromatase” (Eli Lilly and Company, priority 1984, dated 1988).

The series has as its system breast cancer. The note with it: known aromatase inhibitors; result in words.

On to `CCC1(c2ccc(N)cc2)CCC(=O)NC1=O` (centres unmarked) [aminoglutethimide], for which the “beneficial effect in treatment of breast cancer” value is recorded as “beneficial effect”.

As for `C[C@]12C=CC(=O)C=C1CC[C@@H]1[C@@H]2CC[C@]2(C)OC(=O)CC[C@@H]12` [testolactone], the “beneficial effect in treatment of breast cancer” value is recorded as “beneficial effect”.
